The values below come from ChEMBL document CHEMBL1134819, “Design and synthesis of potent and selective inhibitors of integrin VLA-4” (Bioorg Med Chem Lett, 2001).

Experiment [1] deals with T1, Integrin alpha-4/beta-1 (Homo sapiens, UniProt P05556+P13612). In words: In vitro Very late antigen 4 cell adhesion inhibitory activity measured by binding of fluorescently labeled Ramos cells to immobilized VCAM-1. The experiment is classed as cell-based.
In experiment [2] the target is T1, Integrin alpha-4/beta-1. Nature of the experiment: Inhibition of fluorescent Ramos cell adhesion to fibronectin by Very late antigen 4 (VLA-4). Format: cell-based.
Experiment [3] has as its target T2, Integrin alpha-4/beta-7 (Homo sapiens, UniProt P13612+P26010).
T2 sequence (P13612 whole entry): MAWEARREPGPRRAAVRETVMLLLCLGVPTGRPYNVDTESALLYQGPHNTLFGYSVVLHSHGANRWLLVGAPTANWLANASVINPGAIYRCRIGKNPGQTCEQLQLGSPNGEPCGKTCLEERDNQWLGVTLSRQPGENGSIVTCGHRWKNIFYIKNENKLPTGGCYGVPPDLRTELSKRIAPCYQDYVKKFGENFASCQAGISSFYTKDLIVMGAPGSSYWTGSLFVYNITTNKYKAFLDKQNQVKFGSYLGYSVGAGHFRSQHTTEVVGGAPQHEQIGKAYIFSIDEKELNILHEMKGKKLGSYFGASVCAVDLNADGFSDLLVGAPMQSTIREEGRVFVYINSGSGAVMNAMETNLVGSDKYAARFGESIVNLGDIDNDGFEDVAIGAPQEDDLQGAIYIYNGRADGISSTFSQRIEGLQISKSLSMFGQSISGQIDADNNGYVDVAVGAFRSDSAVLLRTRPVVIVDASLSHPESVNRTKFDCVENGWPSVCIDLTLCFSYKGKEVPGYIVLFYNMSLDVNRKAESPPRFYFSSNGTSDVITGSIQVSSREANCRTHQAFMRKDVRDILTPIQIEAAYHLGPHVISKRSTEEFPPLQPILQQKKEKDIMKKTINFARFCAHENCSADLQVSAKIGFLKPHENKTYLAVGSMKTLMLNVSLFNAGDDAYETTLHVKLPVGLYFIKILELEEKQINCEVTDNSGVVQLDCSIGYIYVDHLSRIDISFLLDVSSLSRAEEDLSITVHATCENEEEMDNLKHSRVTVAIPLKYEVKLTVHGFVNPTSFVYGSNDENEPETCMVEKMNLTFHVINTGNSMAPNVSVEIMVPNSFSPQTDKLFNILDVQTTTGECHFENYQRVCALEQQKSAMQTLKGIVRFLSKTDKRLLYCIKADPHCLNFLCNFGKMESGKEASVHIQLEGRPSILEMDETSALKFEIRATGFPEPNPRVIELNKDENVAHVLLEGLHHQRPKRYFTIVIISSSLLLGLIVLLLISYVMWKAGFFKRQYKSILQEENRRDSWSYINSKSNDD
T2 sequence (P26010 whole entry): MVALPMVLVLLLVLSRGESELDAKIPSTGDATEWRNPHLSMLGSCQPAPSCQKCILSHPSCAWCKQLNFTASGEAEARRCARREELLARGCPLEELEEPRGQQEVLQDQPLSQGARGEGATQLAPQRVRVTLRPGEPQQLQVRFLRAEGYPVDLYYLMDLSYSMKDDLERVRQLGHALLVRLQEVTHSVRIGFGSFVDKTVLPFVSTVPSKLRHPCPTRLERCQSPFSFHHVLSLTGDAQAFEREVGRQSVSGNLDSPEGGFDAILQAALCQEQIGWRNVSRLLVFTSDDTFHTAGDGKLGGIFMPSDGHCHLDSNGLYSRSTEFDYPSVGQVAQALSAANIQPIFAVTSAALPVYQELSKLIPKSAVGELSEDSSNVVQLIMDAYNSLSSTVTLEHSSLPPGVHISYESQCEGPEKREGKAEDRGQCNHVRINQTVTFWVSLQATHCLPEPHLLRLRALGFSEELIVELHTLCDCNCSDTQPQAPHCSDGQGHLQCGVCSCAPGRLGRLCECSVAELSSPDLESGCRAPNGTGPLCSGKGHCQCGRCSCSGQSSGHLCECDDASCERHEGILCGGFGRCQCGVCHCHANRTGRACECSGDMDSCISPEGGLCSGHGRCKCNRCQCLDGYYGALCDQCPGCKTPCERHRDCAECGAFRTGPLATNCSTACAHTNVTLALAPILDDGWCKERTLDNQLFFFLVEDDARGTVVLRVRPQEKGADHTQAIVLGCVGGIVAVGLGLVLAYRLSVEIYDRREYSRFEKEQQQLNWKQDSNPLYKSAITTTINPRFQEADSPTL
In words: (§1) Inhibition of fluorescent Ramos cell adhesion to VCAM-1 by alpha4-beta7 integrin. Format: cell-based.

A short description of experiment [4]: Inhibition of fluorescent Ramos cell adhesion to ICAM-1 by mouse Mac-1 integrin. The experiment is classed as functional, cell-based.
For experiment [5], the target named is Integrin alpha-4/beta-1, Rattus norvegicus. In words: Inhibition of fluorescent Ramos cell adhesion to VCAM-1 by rat Very late antigen 4 (VLA-4) integrin.
Experiment [6] has as its target Integrin alpha-5/beta-1 (Homo sapiens, UniProt P05556+P08648). Nature of the experiment: Inhibition of fluorescent Ramos cell adhesion to fibronectin by Very late antigen 5 (VLA-5). The experiment is classed as functional, cell-based.
Experiment [7] can be described thus: Inhibition of fluorescent Ramos cell adhesion to vitronectin by alpha-V-beta-3-alphaV/beta-5 integrins. Format: functional, cell-based, Homo sapiens.
In experiment [8] the target is Integrin alpha-4/beta-1, Mus musculus. Nature of the experiment: Inhibition of fluorescent Ramos cell adhesion to VCAM-1 by mouse Very late antigen 4 (VLA-4) integrin.
The target of experiment [9] is T2, Integrin alpha-4/beta-7. Described as §1. The experiment is classed as protein-complex assay.
The target in experiment [10] is Integrin alpha-4/beta-1, Mus musculus. In words: Inhibition of fluorescent Ramos cell adhesion to VCAM-1 by mouse Very late antigen 4 (VLA-4) integrin. The source holds these as a separate data set.

Chain of Integrin alpha-5/beta-1 (P05556 21-798 limits assumed): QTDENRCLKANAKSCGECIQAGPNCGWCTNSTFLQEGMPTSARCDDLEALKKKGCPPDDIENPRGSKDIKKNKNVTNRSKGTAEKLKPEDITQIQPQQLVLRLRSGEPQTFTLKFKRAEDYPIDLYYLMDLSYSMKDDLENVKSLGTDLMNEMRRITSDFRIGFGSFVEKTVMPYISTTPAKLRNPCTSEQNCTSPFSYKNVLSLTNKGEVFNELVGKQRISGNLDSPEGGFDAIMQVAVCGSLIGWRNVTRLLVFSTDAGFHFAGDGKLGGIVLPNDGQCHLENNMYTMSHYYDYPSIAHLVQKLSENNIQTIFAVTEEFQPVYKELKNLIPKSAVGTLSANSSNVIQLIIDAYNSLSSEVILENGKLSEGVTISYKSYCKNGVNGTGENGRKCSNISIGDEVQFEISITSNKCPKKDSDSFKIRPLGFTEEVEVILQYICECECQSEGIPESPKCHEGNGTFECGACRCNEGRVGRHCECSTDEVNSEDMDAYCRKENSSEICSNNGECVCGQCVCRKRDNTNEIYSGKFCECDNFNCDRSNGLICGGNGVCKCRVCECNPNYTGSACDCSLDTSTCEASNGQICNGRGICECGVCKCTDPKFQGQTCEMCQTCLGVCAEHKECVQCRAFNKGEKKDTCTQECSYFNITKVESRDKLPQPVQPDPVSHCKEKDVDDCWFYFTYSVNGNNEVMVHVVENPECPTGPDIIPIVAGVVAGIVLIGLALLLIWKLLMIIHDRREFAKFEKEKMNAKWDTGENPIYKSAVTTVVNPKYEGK
Chain of Integrin alpha-5/beta-1 (P08648 42-894 limits assumed): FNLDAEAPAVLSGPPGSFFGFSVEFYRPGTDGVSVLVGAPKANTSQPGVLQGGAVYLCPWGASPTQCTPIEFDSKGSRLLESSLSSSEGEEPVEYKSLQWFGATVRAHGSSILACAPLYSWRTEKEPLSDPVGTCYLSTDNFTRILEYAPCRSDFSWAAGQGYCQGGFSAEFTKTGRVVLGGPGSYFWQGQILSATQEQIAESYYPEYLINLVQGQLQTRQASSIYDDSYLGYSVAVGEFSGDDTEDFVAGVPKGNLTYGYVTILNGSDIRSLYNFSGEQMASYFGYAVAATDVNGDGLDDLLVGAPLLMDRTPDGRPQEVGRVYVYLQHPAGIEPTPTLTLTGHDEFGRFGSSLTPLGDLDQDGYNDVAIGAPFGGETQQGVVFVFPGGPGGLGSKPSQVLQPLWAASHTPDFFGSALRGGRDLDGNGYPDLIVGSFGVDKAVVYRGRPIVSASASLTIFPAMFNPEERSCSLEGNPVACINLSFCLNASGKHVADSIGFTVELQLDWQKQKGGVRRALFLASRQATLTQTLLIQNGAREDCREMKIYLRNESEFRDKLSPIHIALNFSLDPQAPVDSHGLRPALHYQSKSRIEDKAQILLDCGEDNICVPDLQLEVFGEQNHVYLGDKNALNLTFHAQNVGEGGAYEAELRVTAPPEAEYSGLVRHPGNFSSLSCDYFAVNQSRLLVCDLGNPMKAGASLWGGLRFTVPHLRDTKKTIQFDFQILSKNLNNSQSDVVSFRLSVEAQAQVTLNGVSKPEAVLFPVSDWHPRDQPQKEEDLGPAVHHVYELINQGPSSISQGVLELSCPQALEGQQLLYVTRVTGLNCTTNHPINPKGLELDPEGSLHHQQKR
Chain of Integrin alpha-5/beta-1 (P08648 895-1049 limits assumed): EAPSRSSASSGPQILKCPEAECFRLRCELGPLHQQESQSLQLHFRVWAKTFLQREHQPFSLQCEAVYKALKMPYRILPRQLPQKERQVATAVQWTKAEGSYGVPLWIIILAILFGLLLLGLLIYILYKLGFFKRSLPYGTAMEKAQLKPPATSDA
T1 sequence (P05556 whole entry, one chain of several): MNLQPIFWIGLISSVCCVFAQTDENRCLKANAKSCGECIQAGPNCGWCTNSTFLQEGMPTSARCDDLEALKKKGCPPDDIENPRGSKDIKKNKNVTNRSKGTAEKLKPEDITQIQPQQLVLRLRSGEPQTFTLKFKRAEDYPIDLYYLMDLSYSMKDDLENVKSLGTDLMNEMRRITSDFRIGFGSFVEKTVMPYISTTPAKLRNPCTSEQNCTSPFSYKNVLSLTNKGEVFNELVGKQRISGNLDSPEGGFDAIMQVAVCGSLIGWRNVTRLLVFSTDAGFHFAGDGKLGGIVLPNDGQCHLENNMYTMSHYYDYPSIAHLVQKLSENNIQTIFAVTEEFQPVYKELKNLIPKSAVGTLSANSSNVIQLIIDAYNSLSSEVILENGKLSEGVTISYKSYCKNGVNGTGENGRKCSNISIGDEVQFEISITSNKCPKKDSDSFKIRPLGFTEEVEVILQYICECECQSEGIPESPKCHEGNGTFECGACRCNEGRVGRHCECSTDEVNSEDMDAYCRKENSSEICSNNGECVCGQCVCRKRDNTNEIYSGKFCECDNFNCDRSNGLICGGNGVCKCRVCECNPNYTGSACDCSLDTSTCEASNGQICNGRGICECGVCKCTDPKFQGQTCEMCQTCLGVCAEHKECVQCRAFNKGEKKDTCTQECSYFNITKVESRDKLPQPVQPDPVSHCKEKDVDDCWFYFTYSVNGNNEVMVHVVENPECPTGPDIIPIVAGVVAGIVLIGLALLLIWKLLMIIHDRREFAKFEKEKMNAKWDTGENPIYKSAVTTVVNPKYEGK

By IC50 is commonly meant the midpoint of a concentration-inhibition curve. Read a high IC50 as lower potency. `Cc1ccccc1NC(=O)Nc1ccc(CC(=O)N[C@H](CC(=O)N[C@@H](CC(=O)O)c2ccccc2)CC(C)C)cc1` displayed an IC50 in experiment [1] of 7300 nM.

`COCCCN(CC(=O)N[C@@H](CC(=O)O)c1ccc(OC)cc1)C(=O)Cc1ccc(NC(=O)Nc2ccccc2C)cc1`: the IC50 in [2] was 36 nM; in [1] it was 4.7 nM; in [3], 6140 nM; in experiment [4], above 500000 nM; in experiment [5] it was 27.2 nM; in experiment [6], above 500000 nM. Moreover, the values for the IC50 in experiment [7] and in experiment [8] were above 100000 nM and 51.9 nM, respectively.

As to `CCOC(=O)C[C@H](NC(=O)CN(CCCOC)C(=O)Cc1ccc(NC(=O)Nc2ccccc2C)cc1)c1ccc(OC)cc1`, the IC50 in experiment [1] was found to be 75000 nM.

In turn, `C=CC[C@H](CC(=O)O)NC(=O)[C@H](CC(C)C)NC(=O)Cc1ccc(NC(=O)Nc2ccccc2C)cc1` yielded an IC50 in experiment [1] of 16.5 nM.

In [1], `Cc1ccccc1NC(=O)Nc1ccc(CC(=O)NN(CC(C)C)C(=O)NC(CC(=O)O)c2ccccc2)cc1` (centres undefined) returned an IC50 of 2900 nM. Compared with the last molecule, the IC50 is about 180-fold higher.

`C=CCC(CC(=O)O)NC(=O)N(CC(C)C)NC(=O)Cc1ccc(NC(=O)Nc2ccccc2C)cc1` (centres undefined): the IC50 in experiment [1] was 5900 nM.

`COCCCN(CC(=O)N[C@@H](CC(=O)O)c1ccc(OC)c(OC)c1)C(=O)Cc1ccc(NC(=O)Nc2ccccc2C)cc1`: the IC50 in experiment [9] is above 100000 nM; in [2], 13.4 nM; in experiment [1] it was 7.1 nM; in [4] it was above 500000 nM; in experiment [5], 21.6 nM; in experiment [6], above 500000 nM. The IC50 in [7] is above 100000 nM; in [8] it was 27.3 nM.

Turning to `COCCCN(CC(=O)N[C@@H](CC(=O)O)c1ccccc1)C(=O)Cc1ccc(NC(=O)Nc2ccccc2C)cc1`, the IC50 in experiment [9] is above 100000 nM; in [2] it was 14.4 nM; in experiment [1], 11.7 nM; in experiment [4], above 500000 nM; in [5] it was 24.5 nM; in [6] it was above 500000 nM. Besides, the figures for the IC50 in experiment [7] and in experiment [8] were above 100000 nM and 21.7 nM, respectively.

Regarding `C/C=C/[C@H](CC(=O)O)NC(=O)CN(CCC(C)C)C(=O)Cc1ccc(NC(=O)Nc2ccccc2C)cc1`, in experiment [1], the IC50 was 45 nM.

`Cc1ccccc1NC(=O)Nc1ccc(CC(=O)N[C@H](CC(=O)N[C@@H](C(=O)O)c2ccccc2)CC(C)C)cc1` displayed an IC50 in experiment [1] of 6400 nM.

`C/C=C/[C@@H](CC(=O)O)NC(=O)C[C@@H](CC(C)C)NC(=O)Cc1ccc(NC(=O)Nc2ccccc2C)cc1` registered an IC50 in experiment [1] of 103000 nM.

`Cc1ccccc1NC(=O)Nc1ccc(CC(=O)N(CCC(C)C)CC(=O)N(CCC(=O)O)CCc2ccccc2)cc1` registered an IC50 in experiment [1] of 98 nM.

Molecule `Cc1ccccc1NC(=O)Nc1ccc(CC(=O)N[C@H](CC(=O)N(CC(=O)O)Cc2ccccc2)CC(C)C)cc1` displayed an IC50 in experiment [1] of 247000 nM.

`Cc1ccccc1NC(=O)Nc1ccc(CC(=O)N(CCC(C)C)CC(=O)N[C@@H](CC(=O)O)c2ccccc2)cc1`: the IC50 in [1] came out at 29 nM. This IC50 is about 8500-fold lower than that of the molecule before.

`Cc1ccccc1NC(=O)Nc1ccc(CC(=O)N[C@@H](CC(=O)N[C@@H](CC(=O)O)c2ccccc2)CC(C)C)cc1` came in with an IC50 in experiment [1] of 262000 nM.

`C=CCN(CC(=O)O)NC(=O)[C@@H](CC(C)C)NC(=O)Cc1ccc(NC(=O)Nc2ccccc2C)cc1` yielded an IC50 in experiment [1] of 11000 nM.

Regarding `COc1ccc([C@H](CC(=O)O)NC(=O)CN(CCC(C)C)C(=O)Cc2ccc(NC(=O)Nc3ccccc3C)cc2)cc1OC`, the IC50 in [1] was 20 nM.

The molecule `COCCCCN(CC(=O)N[C@@H](CC(=O)O)c1ccc(OC)c(OC)c1)C(=O)Cc1ccc(NC(=O)Nc2ccccc2C)cc1` came in with an IC50 in experiment [1] of 1.3 nM.

`Cc1ccccc1NC(=O)Nc1ccc(CC(=O)N[C@H](CC(C)C)C(=O)N(CCC(=O)O)CCc2ccccc2)cc1`: in experiment [1], the IC50 is 37000 nM.

`Cc1ccccc1NC(=O)Nc1ccc(CC(=O)N[C@@H](CC(C)C)C(=O)N[C@@H](CC(=O)O)c2ccc3c(c2)OCO3)cc1` yielded an IC50 in experiment [1] of 3 nM.

With `C/C=C/[C@H](CC(=O)O)NC(=O)CN(CCCOC)C(=O)Cc1ccc(NC(=O)Nc2ccccc2C)cc1`, the IC50 in [9] is above 100000 nM; in [2] it was 7.9 nM; in experiment [1], 15.4 nM; in [10], 7.7 nM; in experiment [4], above 500000 nM; in [5], 20.5 nM. The IC50 in [6] was above 500000 nM; in experiment [7], 59000 nM.
